In ChEMBL document CHEMBL4406812, “Synthesis of quinones with highlighted biological applications: A critical update on the strategies towards bioactive compounds with emphasis on lapachones” (Eur J Med Chem, 2019):
Converted amounts (≈) assume the structure as drawn.

Assays:
Trypanosoma cruzi [1] = experiment: Anti-parasitic activity against Trypanosoma cruzi; type: functional, organism-based
HepG2 = experiment: Cytotoxicity against human HepG2 cells assessed as reduction in cell viability after 48 hrs by MTT assay; type: functional, cell-based; conditions: HepG2, 48 h
L02 = experiment: Cytotoxicity against human LO2 cells assessed as reduction in cell viability after 48 hrs by MTT assay; type: functional, cell-based; conditions: L02, 48 h
LNCaP = experiment: Anticancer activity against human LNCAP cells after 72 to 102 hrs by MTT assay; type: functional, cell-based
PC-3 = experiment: Anticancer activity against human PC3 cells after 72 to 102 hrs by MTT assay; type: functional, cell-based
HL-60 [2] = experiment: Anticancer activity against human HL60 cells; type: functional, cell-based
Trypanosoma cruzi [3] = experiment: Anti-parasitic activity against trypomastigotes form of Trypanosoma cruzi after 24 hrs; type: functional, organism-based
Trypanosoma cruzi [4] = experiment: Trypanocidal activity against Trypanosoma cruzi Y strain bloodstream trypomastigotes isolated from infected Swiss mouse infected with monkey LLC-MK2 cells after 5 days by fluorescence spectrophotometric analysis; type: functional, organism-based; conditions: LLC-MK2, 120 h
[5] = Selectivity index, ratio of CC50 for monkey LLC-MK2 cells to IC50 for Trypanosoma cruzi Y strain bloodstream trypomastigotes; type: toxicity; conditions: read-out: Ratio IC50
Trypanosoma cruzi [6] = experiment: Anti-parasitic activity against amastigote form of Trypanosoma cruzi after 24 hrs; type: functional, organism-based
Trypanosoma cruzi [7] = experiment: Trypanocidal activity against Trypanosoma cruzi Y strain bloodstream trypomastigotes after 24 hrs; type: functional, organism-based
MCF7 = experiment: Anticancer activity against human MCF7 cells; type: functional, cell-based
[8] = tested on: Mycobacterium tuberculosis; experiment: Antimycobacterial activity against Mycobacterium tuberculosis H37Rv; type: functional
KB = experiment: Cytotoxicity against human KB cells assessed as reduction in cell viability after 48 hrs by MTT assay; type: functional, cell-based
HeLa = experiment: Cytotoxicity against human HeLa cells assessed as reduction in cell viability after 48 hrs by MTT assay; type: functional, cell-based
Vero = experiment: Cytotoxicity against African green monkey Vero cells assessed as reduction in cell viability after 48 hrs by MTT assay; type: cell-based; conditions: Chlorocebus sabaeus
HL-60 [9] = experiment: Anticancer activity against human HL60 cells by MTT assay; type: functional, cell-based
HCT-116 = experiment: Anticancer activity against human HCT116 cells by MTT assay; type: functional, cell-based
SF-295 [10] = experiment: Anticancer activity against human SF295 cells by MTT assay; type: functional, cell-based
OVCAR-8 = experiment: Anticancer activity against human OVCAR8 cells by MTT assay; type: functional, cell-based
MDA-MB-435 = experiment: Cytotoxicity against human MDA-MB-435 cells assessed as reduction in cell viability after 72 hrs by MTT assay; type: functional, cell-based; conditions: MDA-MB-435, 72 h
SF-295 [11] = experiment: Cytotoxicity against human SF295 cells assessed as reduction in cell viability after 72 hrs by MTT assay; type: functional, cell-based; conditions: SF-295, 72 h
Hs-578T [12] = experiment: Cytotoxicity against human Hs578T cells assessed as reduction in cell viability after 72 hrs by MTT assay; type: functional, cell-based
SW-620 = experiment: Cytotoxicity against human SW620 cells assessed as reduction in cell viability after 72 hrs by MTT assay; type: functional, cell-based; conditions: SW-620, 72 h
Hs-578T [13] = experiment: Cytotoxicity against human Hs 578T cells assessed as reduction in cell viability after 72 hrs by MTT assay; type: functional, cell-based
NCI-H358 = experiment: Cytotoxicity against human NCI-H358 cells assessed as reduction in cell viability after 72 hrs by MTT assay; type: functional, cell-based; conditions: NCI-H358, 72 h
HL-60 [14] = experiment: Cytotoxicity against human HL60 cells assessed as reduction in cell viability after 22 hrs by MTS assay; type: functional, cell-based; conditions: HL-60, 22 h
Trypanosoma cruzi [15] = experiment: Trypanocidal activity against Trypanosoma cruzi Y strain bloodstream trypomastigotes isolated from infected Swiss mouse after 24 hrs by Neubauer chamber method; type: functional, organism-based

## Nc1c(I)ccc2c1C(=O)C=CC2=O
Trypanosoma cruzi [1]
  IC50: 0.6 µM

## Cc1ccc2c(c1)C1(C(=O)N2)C2=C(N=C3N=NNN31)c1ccccc1C(=O)C2=O (stereo unspecified)
HepG2
  IC50: 2.9 to 36.3 µM
L02
  IC50: 2.9 to 36.3 µM

## COc1ccc2c(c1)NC(=O)C21C2=C(N=C3N=NNN31)c1ccccc1C(=O)C2=O (stereo unspecified)
HepG2
  IC50: 2.9 to 36.3 µM
L02
  IC50: 2.9 to 36.3 µM

## Nc1nnn[nH]1
HepG2
  IC50: 2.9 to 36.3 µM
L02
  IC50: 2.9 to 36.3 µM

## Cc1cc(I)c2c(c1)C(=O)C=CC2=O
Trypanosoma cruzi [1]
  IC50: 0.5 µM

## O=C1c2ccccc2C(=O)c2oc(-c3cccc(Cl)c3)nc21
LNCaP
  IC50: 0.03 µM
PC-3
  IC50: 0.08 µM

## O=C1C(=O)c2ccccc2C2=C1C1(C(=O)Nc3c(Br)cccc31)N1NN=NC1=N2 (stereo unspecified)
HepG2
  IC50: 2.9 to 36.3 µM
L02
  IC50: 2.9 to 36.3 µM

## CN1C(=O)C2(C3=C(N=C4N=NNN42)c2ccccc2C(=O)C3=O)c2cccc(F)c21 (stereo unspecified)
HepG2
  IC50: 2.9 to 36.3 µM
L02
  IC50: 2.9 to 36.3 µM

## COc1ccc(NC2CC(C)(C)OC3=C2C(=O)c2ccccc2C3=O)cc1 (stereo unspecified)
HL-60 [2]
  IC50: 0.07 µM

## O=C1C=CC(=O)c2c(Sc3ccc(Br)cc3)cccc21
Trypanosoma cruzi [3]
  IC50: 6.6 µM

## CCCCCCCCC1CC2=C(O1)c1ccccc1C(=O)C2=O (stereo unspecified)
Trypanosoma cruzi [4]
  IC50: 20.7 µM
[5]
  selectivity ratio: 106

## O=C(Cn1ccnc1[N+](=O)[O-])NCc1ccccc1 [BENZNIDAZOLE]
Trypanosoma cruzi [4]
  IC50: 19.9 µM
[5]
  selectivity ratio: 16.8
Trypanosoma cruzi [6]
  IC50: 3.3 µM
Trypanosoma cruzi [7]
  IC50: 9.68 µM

## CC(=O)OCC1C2=C(OC1(C)C)c1ccccc1C(=O)C2=O (stereo unspecified)
MCF7
  IC50: 0.6 µM

## O=C1C(=O)c2ccccc2C2=C1C1(C(=O)Nc3cc(Br)ccc31)N1NN=NC1=N2 (stereo unspecified)
HepG2
  IC50: 2.9 to 36.3 µM
L02
  IC50: 2.9 to 36.3 µM

## O=C1C(=O)c2ccccc2C2=C1C1(C(=O)Nc3ccc(F)cc31)N1NN=NC1=N2 (stereo unspecified)
HepG2
  IC50: 2.9 to 36.3 µM
L02
  IC50: 2.9 to 36.3 µM

## CC1(C)CCC2=C(O1)c1ccccc1C(=O)C2=O [LAPACHONE]
[8]
  MIC: 100 µg/mL (≈ 413 µM)

## O=C1C=CC(=O)c2c(SCc3ccccc3)cccc21
Trypanosoma cruzi [3]
  IC50: 14.3 µM

## O=C1C(=O)c2ccccc2C2=C1CCCO2
LNCaP
  IC50: 2.76 µM
KB
  IC50: 3.2 µM
HeLa
  IC50: 0.9 µM
HepG2
  IC50: 0.9 µM
Vero
  IC50: 1 µM

## CC1(C)O[C@H]2O[C@H](COC3C4=C(OC3(C)C)c3ccccc3C(=O)C4=O)[C@@H](OCc3ccccc3)[C@H]2O1 (stereo partly specified)
HL-60 [9]
  IC50: 0.16 µM
HCT-116
  IC50: 0.51 µM
SF-295 [10]
  IC50: 0.34 µM
OVCAR-8
  IC50: 0.89 µM

## O=C1C(=O)c2ccccc2C2=C1C1(C(=O)Nc3ccc(OC(F)(F)F)cc31)N1NN=NC1=N2 (stereo unspecified)
HepG2
  IC50: 2.9 to 36.3 µM
L02
  IC50: 2.9 to 36.3 µM

## CC1(C)OC2=C(C(=O)C(=O)c3ccccc32)C1n1cc(-c2ccc(Nc3ccccn3)c3nsnc23)nn1 (stereo unspecified)
MDA-MB-435
  IC50: 0.59 µM
SF-295 [11]
  IC50: 0.74 µM
Hs-578T [12]
  IC50: 0.57 µM
SW-620
  IC50: 0.55 µM
Hs-578T [13]
  IC50: 0.59 µM
NCI-H358
  IC50: 0.7 µM

## O=C1C2=C(S[C@@H]3OC[C@@H](O)[C@H](O)[C@H]3O2)C(=O)c2ccccc21
HL-60 [14]
  IC50: 1 µM

## CCCCCCCCCCC1CC2=C(O1)c1ccccc1C(=O)C2=O (stereo unspecified)
Trypanosoma cruzi [4]
  IC50: 46.8 µM
[5]
  selectivity ratio: 36.3

## CCOC(=O)/C=C/c1cccc2c1C(=O)C=CC2=O
Trypanosoma cruzi [15]
  IC50: 63.4 µM

## COc1ccc(I)c2c1C(=O)C=C(C)C2=O
Trypanosoma cruzi [7]
  IC50: 7.57 µM
